Measured values from US20210008018A1, “DEUTERATED ANALOGS OF D-BETA-HYDROXYBUTYRIC ACID AND USES THEREOF” (Concert Pharmaceuticals, Inc., priority 2018, published 2021).

Legend:
[1] = molecular target: β-hydroxybutyrate dehydrogenase from Pseudomonas lemoignei (Paucimonas lemoignei, UniProt A0A4R3I0R9); assay: Metabolic stability using D-β-hydroxybutyrate dehydrogenase (NADH formation, Km/Vmax); settings: for CLint Ratio (NCE/PCE): NCE = Compound 100, 102 or 202, PCE = protio DBHB; for T1/2 Δ (%): [(deuterated species)-(nondeuterated species)](100)/(nondeuterated species); for ^DV: deuterium isotope effect on Vmax versus D-β-hydroxybutyric acid; for ^D(V/K): deuterium isotope effect on Vmax/Km versus D-β-hydroxybutyric acid; for CLint: intrinsic clearance calculated from Vmax and Km; for half-life: b-hydroxybutyrate dehydrogenase, pH 7.8; for Vmax: compound as substrate, NADH formation, Michaelis-Menten non-linear regression, 100 mM Tris pH 7.8
Method: (§1) Materials: β-Hydroxybutyrate Dehydrogenase from Pseudomonas lemoignei, nicotinamide adenine dinucleotide sodium salt (NAD), β-nicotinamide adenine dinucleotide, reduced dipotassium salt (NADH) and Trizma Base were purchased from Sigma-Aldrich.
(§2) Determination of Metabolic Stability of Compounds of the Invention Using D-β-hydroxybutyrate Dehydrogenase: 100 mM Tris pH 7.8 was prepared for assessing catalytic activity and as diluent to form corresponding solutions. Enzyme solution was prepared by dissolving lyophilized β-hydroxybutyrate dehydrogenase from Pseudomonas lemoignei in 100 mM Tris pH 7.8 to a final concentration of 200 Units/mL. The enzyme working stock solution (2 Units/mL) was prepared by dilution of stock solution (200 Units/mL) with 100 mM Tris pH 7.8 buffer. 30 mM NAD stock solution was prepared by dissolving NAD in 100 mM Tris pH 7.8 buffer. […] Working stock solutions of test compounds were prepared over the concentration range of 1 to 40 mM by appropriate dilutions in 100 mM Tris pH 7.8 buffer. 10 mM analytical standard stock solution were prepared by dissolving NADH in 100 mM Tris pH 7.8. Analytical standards were prepared over the concentration range of 0.05 to 1.5 mM by appropriate dilutions in 100 mM Tris pH 7.8. Enzymatic assays were conducted by aliquoting 40 μL of working test compound stock solution, 6 μL of enzyme working stock solution, 178 μL 100 mM Tris pH 7.8 into 96-well white clear bottom plates. The enzymatic assay was initiated by adding 16 μL of 30 mM NAD. The reaction was incubated at 37° C. The progress of each reaction was monitored over 15 minutes by measuring absorbance at […] of all wells every minute using a Perkin Elmer Enspire Multimode plate reader. Blank wells were prepared to subtract background. NADH formation was quantified using NADH analytical standard curve on same 96-well plate used to monitor enzyme activity. All reactions were conducted in triplicate.
(§3) The activity was determined by monitoring the rate of conversion of NAD to NADH by change in absorbance at 340 nm. The appropriate background was subtracted for each concentration and compound investigated and NADH concentration formed was calculated using NADH standard curve. The initial rates (v) for NADH formation as a function of initial test compound concentration (C) to derive Km and Vmax values by non-linear regression using Michaelis-Menten equation using GraphPad Prism 7 for Windows (version 7.03).
(§4) Difference between Vmax, Km and catalytic efficiency (Vmax/Km) for each compound was assessed using unpaired t-test with statistical significance using Holm-Sidak method with α=0.05. The unpaired t-test values were calculated using GraphPad Prism 7 for Windows (version 7.03).
(§5) Intrinsic clearance (CLint) and half-life (t1/2) values were calculated for each test compound using the following equations.

[2] = molecular target: β-hydroxybutyrate dehydrogenase (Paucimonas lemoignei, UniProt A0A4R3I0R9); assay: as above; settings: Pseudomonas lemoignei, pH 7.8
Method: as §1, §2, §3, §4, §5

[3] = using Vmax/Km to predict clearance, vs D-β-hydroxybutyric acid, 0.167 mM to 6.7 mM
[4] = vs D-β-hydroxybutyric acid, D-β-Hydroxybutyrate Dehydrogenase Assay

Sequence of β-hydroxybutyrate dehydrogenase from Pseudomonas lemoignei (A0A4R3I0R9 entry or part of it): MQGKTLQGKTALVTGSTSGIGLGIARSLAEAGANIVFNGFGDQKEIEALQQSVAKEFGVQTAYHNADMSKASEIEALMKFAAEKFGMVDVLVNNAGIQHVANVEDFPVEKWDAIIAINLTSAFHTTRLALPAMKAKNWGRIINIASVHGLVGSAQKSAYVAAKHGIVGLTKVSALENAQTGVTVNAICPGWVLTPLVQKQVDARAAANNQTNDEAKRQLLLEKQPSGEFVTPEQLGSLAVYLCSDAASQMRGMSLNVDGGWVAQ
Sequence of β-hydroxybutyrate dehydrogenase (A0A4R3I0R9 entry or part of it): as above

SMILES	CLint Ratio (NCE/PCE) [1]	T1/2 Δ (%) [1]	^DV [1]	^D(V/K) [1]	CLint [1]	clearance predicted to be reduced by, compared to D-β-hydroxybutyric acid [1, 3]	increase in half-life (T1/2) [1, 4]	half-life [2]	half-life [1]	Vmax ([1]; 0.167 mM to 6.7 mM)	clearance predicted to be increased by, compared to D-β-hydroxybutyric acid [1, 3]	decrease in half-life (T1/2) [1, 4]
[2H][C@](C)(O)CC(=O)O [Compound 100, (R)-3-Hydroxybutanoic-3-d1 Acid]	0.7	40.2%	1.1	1.4	0.0190 mL/min	30%	40%	36.4 min				
[2H]C([2H])([2H])[C@@]([2H])(O)CC(=O)O [Compound 102, (R)-3-hydroxybutanoic-3,4,4,4-d4 Acid]	0.5	114%	1.0	2.1	0.0125 mL/min	50%	114%		55.7 min	0.0213 µmol/mL/min		
[2H]C([2H])([2H])[C@@H](O)CC(=O)O [Compound 202, (R)-3-hydroxybutanoic-4,4,4-d3 Acid]	2.0	−48.7%	0.7	0.5	0.0520 mL/min				13.3 min	0.0330 µmol/mL/min	100%	~49%
C[C@@H](O)CC(=O)O [DBHB, D-β-hydroxybutyric acid, reference compound]					0.0267 mL/min			26 min				
